The text below walks through data of patent US12653190B2, “Heteroaryl-triazole compounds as pesticides” (Bayer Aktiengesellschaft, priority 2020, dated 2026).

Each structure is given as a SMILES string.

What all share (format): in vivo
In test [1] the test system is green peach aphid (Myzus persicae). The test is described as follows: Myzus persicae spray test. As to conditions: foliar, 120 h, after 5 days, Chinese cabbage leaf disks. On the procedure: Myzus persicae—Spray Test
• Solvent: 78.0 parts by weight acetone • 1.5 parts by weight dimethylformamide • Emulsifier: alkylarylpolyglycol ether
To produce a suitable preparation of active compound, 1 part by weight of active compound is mixed with the stated amount of solvents and is diluted with water, containing an emulsifier concentration of 1000 ppm, to the desired concentration. Further test concentrations are prepared by dilution with emulsifier containing water.
Chinese cabbage (Brassica pekinensis) leaf disks infected with all instars of the green peach aphid (Myzus persicae), are sprayed with a preparation of the active ingredient of the desired concentration.
(§1) After 5 days mortality in % is determined. 100% means all aphids have been killed and 0% means none of the aphids have been killed.

Test [2] deals with fall armyworm larvae (Spodoptera frugiperda). The test is described as follows: Spodoptera frugiperda spray test. As to conditions: in Zea mays, 168 h. The essentials: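 Maize leaf sections were sprayed with compound in acetone/dimethylformamide diluted in water with 1000 ppm emulsifier, dried, then infested with larvae. Mortality in % was scored after 7 days, 100% meaning all caterpillars killed.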

The test system of test [3] is adult brown dog ticks (Rhipicephalus sanguineus). The test is described as follows: Rhipicephalus sanguineus in-vitro contact test, adult brown dog ticks. As to conditions: 5 μg/cm^2 (=500 g/ha), after 48 hours, read-out: efficacy (ticks dead or moribund). How it is done:
Rhipicephalus sanguineus—In-Vitro Contact Tests with Adult Brown Dog Ticks
(§2) 9 mg compound is solved in 1 mL acetone and diluted with acetone to the desired concentration. 250 μL of the test solution is filled in 25 mL glass test tubes and homogeneously distributed on the inner walls by rotation and tilting on a shaking device (2 h at 30 rpm). With a compound concentration of 900 ppm, an inner surface of 44.7 cm^2 and a homogeneous distribution, a dose of 5 μg/cm^2 is achieved.
After the solvent has evaporated, each test tube is filled with 5-10 adult brown dog ticks (Rhipicephalus sanguineus), closed with a perforated lid and incubated in a lying position at room temperature and relative humidity. After 48 hours efficacy is determined. The ticks are patted on the ground of the tubes and are incubated on a heating plate at 45-50° C. for at most 5 minutes Immotile or uncoordinated moving ticks, which are not able to escape the heat by climbing upwards, are marked as dead or moribund.
An efficacy of 100% means all ticks are dead or moribund; 0% means no ticks are dead or moribund.

For test [4], the system named is larvae of the southern green stink bug (Nezara viridula). The test is described as follows: Nezara viridula spray test. To be noted: 96 h, after 4 days, barley plants. The essentials:
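Compound in acetone/DMF was diluted in water with 1000 ppm alkylarylpolyglycol ether emulsifier. Barley plants were sprayed with it, then infested with Nezara viridula larvae. Mortality % was scored after 4 days (100% = all killed).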

Test [5] has as its system larvae of the banded cucumber beetle (Diabrotica balteata). The test can be described thus: Diabrotica balteata spray test. As to conditions: 168 h, 100 g/ha (=32 μg/well), after 7 days, wheat seeds, read-out: efficacy (seedling growth). The essentials:
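Germinated wheat seeds on agar (5 per well) were sprayed with compound formulated in acetone/DMF and diluted in water with 1000 ppm emulsifier. Each unit was then infested with 10–20 larvae. Efficacy % was scored after 7 days as seedling growth relative to an untreated, uninfested control (100% = normal growth).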

For test [6], the system named is Rhipicephalus (Boophilus) microplus larvae (strain Parkhurst, resistant against synthetic pyrethroids). The test is described as follows: Rhipicephalus (Boophilus) microplus in-vitro contact test, larval cattle tick. As to conditions: 5 μg/cm^2 (=500 g/ha), after 48 hours, read-out: efficacy (larvae dead or moribund). On the procedure:
Rhipicephalus (Boophilus) microplus—In-Vitro Contact Tests Larval Cattle Tick (Strain Parkhurst, Resistant Against Synthetic Pyrethroids)
as §2
After the solvent has evaporated, each test tube is filled with 20-50 cattle tick larvae (Rhipicephalus microplus), closed with a perforated lid and incubated in a horizontal position at 85% relative humidity and 27° C. in an incubator. After 48 hours efficacy is determined. The larvae are patted on the ground of the tubes and negative geotactic behavior is recorded.
An efficacy of 100% means all larvae are dead or moribund; 0% means no larvae are dead or moribund.

Test [7] deals with adult cat fleas (Ctenocephalides felis). The test is described as follows: Ctenocephalides felis in-vitro contact test, adult cat flea. As to conditions: 5 μg/cm^2 (=500 g/ha), after 48 hours, read-out: efficacy (fleas dead or moribund). On the procedure:
Ctenocephalides felis—In-Vitro Contact Tests Adult Cat Flea
as §2
After the solvent has evaporated, each test tube is filled with 5-10 adult cat fleas (Ctenocephalides felis), closed with a perforated lid and incubated in a lying position at room temperature and relative humidity. After 48 hours efficacy is determined. The fleas are patted on the ground of the tubes and are incubated on a heating plate at 45-50° C. for at most 5 minutes Immotile or uncoordinated moving fleas, which are not able to escape the heat by climbing upwards, are marked as dead or moribund.
An efficacy of 100% means all fleas are dead or moribund; 0% means no fleas are dead or moribund.

Test [8] concerns adult engorged female ticks (Rhipicephalus microplus). The test is described as follows: Rhipicephalus (Boophilus) microplus injection test. To be noted: 168 h, egg deposition monitored after 7 days, read-out: efficacy (infertile eggs). Summed up:
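Five adult engorged female ticks each injected with 1 μL of DMSO compound solution into the abdomen, then kept in a climate chamber. Fertile egg deposition assessed after 7 days, with hatching followed to about 42 days; efficacy 100% means all eggs infertile, 0% all fertile.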

For test [9], the system named is adult flies Musca domestica strain WHO-N. The test can be described thus: Musca domestica test (MUSCDO surface treatment & contact assay). As to conditions: 24 hours after contact, read-out: efficacy (mortality); for mortality at 4 mg/m2: surface concentration 4 mg/m^2, 30 minutes exposure; for mortality at 20 mg/m2: surface concentration 20 mg/m^2, 30 minutes exposure. On the procedure: Musca domestica Test (MUSCDO Surface Treatment & Contact Assay)
(§3) • Solvent: Aceton+2000 ppm rapeseed oil methyl ester (RME)
In order to produce a sufficient, active ingredient containing solution it is necessary to solve the test compound in the solvent-mix (acetone at 2 mg/ml/RME 2000 ppm). This solution is pipetted onto a glazed tile and after evaporation of the acetone, adult flies of the species Musca domestica strain WHO-N are placed onto the dried surface. The exposure time is 30 minutes.
(§4) Mortality in percent (%) is determined 24 hours after contact of the insects to the treated surface. 100% mortality means that all tested insects are dead, whereas 0% means that no insect died.

Test [10] relates to adult mosquitoes Aedes aegypti strain MONHEIM. The test can be described thus: Aedes aegypti test (AEDSAE surface treatment & contact assay). As to conditions: 24 hours after contact, read-out: efficacy (mortality); for mortality at 4 mg/m2: surface concentration 4 mg/m^2, 30 minutes exposure; for mortality at 20 mg/m2: surface concentration 20 mg/m^2, 30 minutes exposure. How it is done: Aedes aegypti Test (AEDSAE Surface Treatment & Contact Assay)
as §3
In order to produce a sufficient, active ingredient containing solution it is necessary to solve the test compound in the solvent-mix (acetone at 2 mg/ml/RME 2000 ppm). This solution is pipetted onto a glazed tile and after evaporation of the acetone, adult mosquitoes of the species Aedes aegypti strain MONHEIM are placed onto the dried surface. The exposure time is 30 minutes.
as §4

For test [11], the system named is adult mosquitoes Culex quinquefasciatus strain P00. The test is described as follows: Culex quinquefasciatus test (CULXFA surface treatment & contact assay). To be noted: 24 hours after contact, read-out: efficacy (mortality); for mortality at 4 mg/m2: surface concentration 4 mg/m^2, 30 minutes exposure; for mortality at 20 mg/m2: surface concentration 20 mg/m^2, 30 minutes exposure. On the procedure:
Culex quinquefasciatus Test (CULXFA Surface Treatment & Contact Assay)
as §3
In order to produce a sufficient, active ingredient containing solution it is necessary to solve the test compound in the solvent-mix (acetone at 2 mg/ml/RME 2 000 ppm). This solution is pipetted onto a glazed tile and after evaporation of the acetone, adult mosquitoes of the species Culex Quinquefasciatus strain P00 are placed onto the dried surface. The exposure time is 30 minutes. Mortality in percent (%) is determined 24 hours after contact of the insects to the treated surface. 100% mortality means that all tested insects are dead, whereas 0% means that no insect died.

Test [12] relates to green peach aphid (Myzus persicae). The test can be described thus: Myzus persicae oral test. As to conditions: 120 h, 4 ppm, after 5 days. On the procedure: • Solvent: 100 parts by weight acetone
To produce a suitable preparation of active compound, 1 part by weight of active compound is mixed with the stated amount of solvent, and the concentrate is diluted with water to the desired concentration.
50 μL compound solution is filled in microtiter plates and 150 μL IPL41 insect medium (33%+15% sugar) is added to obtain a total volume of 200 μL per well. Afterwards the plates are sealed with parafilm through which a mixed population of the green peach aphid (Myzus persicae) can suck on the compound preparation.
as §1

`C[C@H](NC(=O)c1cc(Br)cc(C(F)(F)C2CC2)c1)c1ncnn1-c1cnc(C#N)cn1` [Example I-59]: the mortality at 100 g/ha in [1] was 90%; in test [2], 100%; in [4], 100%. The figures for the pest or weed control at 5 µg/cm2, 5 µg/cm2 in test [3], in test [6] and in test [7] were 100%, 100% and 80%, respectively. Besides, the mortality at 500 g/ha in test [4] stood at 100%. In test [5], the pest or weed control at 32 µg/disc, 100 g/ha was 100%.

For `Cc1nc([C@H](C)NC(=O)c2cc(OC(C)c3ccc(Cl)cc3)cc(C(F)(F)F)c2)n(-c2ccc(C#N)cn2)n1` (stereo partly drawn) [Example I-15, 3-[1-(4-Chlorophenyl)ethoxy]-N-{(1S)-1-[1-(5-cyanopyridin-2-yl)-3-methyl-1H-1,2,4-triazol-5-yl]ethyl}-5-(trifluoromethyl)benzamide], the pest or weed control at 5 µg/cm2, 5 µg/cm2 in [3] was 80%. Further, the pest or weed control at 32 µg/disc, 100 g/ha in test [5] stood at 100%. Also, the pest or weed control at 4 µg/tick in [8] (4 μg/tick injected) was found to be 100%. Also, the pest or weed control at 20 µg/tick in test [8] (20 μg/tick injected) was found to be 100%.

`C[C@H](NC(=O)c1cc(C(F)(F)F)cc(C(C)(C)C#N)c1)c1ncnn1-c1ncc(C#N)s1` [Example I-44, 3-(1-Cyano-1-methyl-ethyl)-N-[(1S)-1-[2-(5-cyanothiazol-2-yl)-1,2,4-triazol-3-yl]ethyl]-5-(trifluoromethyl)benzamide]: the mortality at 100 g/ha in test [1], in test [2] and in [4] was 100% in each case. The mortality at 4 mg/m2 in [9], in [10] and in test [11] was 80 to 100% throughout. Besides, the mortality at 20 mg/m2 in test [9], in [10] and in [11] was 80 to 100% each time. Besides, the pest or weed control at 5 µg/cm2, 5 µg/cm2 in [3] worked out at 80%; in [6], 100%; in test [7], 100%. In [4], this compound showed a mortality at 500 g/ha of 100%.

Regarding `C[C@H](NC(=O)c1cc(C(F)(F)F)cc(C(C)(C)C#N)c1)c1ncnn1-c1ccc(C#N)cn1` [Example I-42], the mortality at 100 g/ha in test [1], in test [2] and in test [4] was 100% in each case. Also, the mortality at 4 mg/m2 in test [9], in test [10] and in [11] was 80 to 100% in each case. Besides, the mortality at 20 mg/m2 in test [9], in [10] and in [11] was 80 to 100% throughout. Besides, the pest or weed control at 5 µg/cm2, 5 µg/cm2 in test [3] turned out to be 80%; in test [6], 100%; in test [7], 80%. Moreover, the mortality at 500 g/ha in test [4] is 100%. Moreover, the pest or weed control at 32 µg/disc, 100 g/ha in test [5] turned out to be 100%.

On to `C[C@H](NC(=O)c1cc(C(F)(F)F)cc(C(C)(C)C#N)c1)c1ncnn1-c1cnc(C#N)cn1` [Example I-58], for which the mortality at 100 g/ha in [1] is 90%; in [2] it was 100%; in test [4], 100%. Moreover, the pest or weed control at 5 µg/cm2, 5 µg/cm2 was determined as 80% in test [3], 100% in test [6] and 100% in test [7]. In test [4], this compound showed a mortality at 500 g/ha of 100%. Also, the pest or weed control at 32 µg/disc, 100 g/ha in test [5] came to 100%.

As for `C[C@H](NC(=O)c1cc(OCC2CC2(Cl)Cl)cc(C(F)(F)F)c1)c1ncnn1-c1ccc(C#N)cn1` (some centres unmarked) [Example I-29], in test [12], the mortality at 4 ppm stood at 90%. The pest or weed control at 32 µg/disc, 100 g/ha in test [5] came out at 100%.

Turning to `C[C@H](NC(=O)c1cc(OCC(Cl)=C(Cl)Cl)cc(C(F)(F)F)c1)c1ncnn1-c1ncc([N+](=O)[O-])s1` [Example I-34], in test [12], the mortality at 4 ppm was 90%.

`Cc1nc([C@H](C)NC(=O)c2cc(OC3CCOCC3)cc(C(F)(F)F)c2)n(-c2ccc(C#N)cn2)n1` [Example I-21, N-{(1S)-1-[1-(5-Cyanopyridin-2-yl)-3-methyl-1H-1,2,4-triazol-5-yl]ethyl}-3-(tetrahydro-2H-pyran-4-yloxy)-5-(trifluoromethyl)benzamide] registered a mortality at 100 g/ha in test [2] of 83%. The pest or weed control at 5 µg/cm2, 5 µg/cm2 in test [3] came to 80%; in [6], 100%.

What is called mortality is the share of the test organisms that died.
